Data on one substance can be found in US5817617A, “Selectin and pertussis toxin derived peptides and uses thereof” (The Rockefeller University, priority 1994, dated 1998).

Experiment [1] in a line: Carbohydrate recognition: binding to glycolipids separated by thin layer chromatography (FIG. 3). The source says:
The variability in the S2 and S3 segments shown in FIG. 1 SEQ ID NOS:42-47 is, quite clearly responsible for the variation in carbohydrate binding properties of PT, S2 and S3 which have been observed.
The peptides S2/S3 and S3/S2 are novel therapeutic agents and are specifically included within the scope of this invention, as are the genes which express them.
In FIG. 3, the dark bars represent the positions of glycolipids after separation by thin layer chromatography in accordance with the method of Tuomanen et al, J. Exp Med 168:267, 1988.

The test system of the next experiment is GMP140. As to the kind of experiment: Inhibition of adhesion of neutrophils to GMP140 (FIG. 4B). The settings on record: protein at 50 ug/ml, compared to buffer control. It is filed as cell-based. The method, then: (§1) In the study, the proteins PT, B-oligomer, S2, S3, S2/S3 and S3/S2 were taken up in an isotonic buffered tissue culture medium to a concentration of 50 ug/ml and the ability of each of them to inhibit adhesion of neutrophils to ELAM or GMP140 was determined as described by Wright et al J. Exp. Med. 158:2016 (1983). The buffer was employed as the control and each protein studied was compared to the control for the ability to decrease adhesion capacity.

The subject of a further experiment is ciliated cells. Kind of experiment: Reconstitution of adherence of B. pertussis mutant BPTOX6 to ciliated cells by exogenous PT and subunits. Type of experiment: cell-based. As to conditions: PT component 50 ug/ml coated on BPTOX6; 10^7 bacteria, 10^5 rabbit ciliated cells, 3 hours; mean ± standard deviation. Here is the method:
(§2) The ability of PT or the individual subunits to act as adhesins for PT-deficient bacteria to eukaryotic cells was assessed as described by Tuomanen et al (1985). Infect. Dis. 153, 118-125 and Relman et al (199) Cell 61, 1375-1382. […] For the test reported in Table 1 PT or its individual subunits (50 ug/ml) were incubated for 30 minutes with strain BPTOX6 for ciliated cell assays or BP101/TOX6 for macrophage assays in order to coat the bacteria with adhesin. 10^7 bacteria were then incubated for 3 hours with 10^5 ciliated cells or alveolar macrophages harvested from healthy rabbits (2,4). Adherence was detected by staining of the bacteria with a 1:40 dilution of fluorescein conjugated anti-Bordetella antibody (Difco, Detroit, Mich.). Values are expressed as the mean ±standard deviation of the number of bacteria per eukaryotic cell, 25 cells/test, and each test repeated in triplicate. The procedure is described in more detail in Saukkonen et al Proc. Natl. Acad. Sci. 89,118-122 (1991).

Experiment [2] deals with leukocytes in cerebrospinal fluid. Kind of experiment: Rabbit model of pneumococcal meningitis: leukocytes in cerebrospinal fluid (FIG. 6b, 7B). Type of experiment: in vivo. The settings on record: rabbits with established pneumococcal meningitis; intravenous PT or B-oligomer. From the text:
This is shown experimentally in FIG. 6b. In the experiments rabbits with established pneumonococcal meningitis received intravenous PT or B-oligomer.
FIG. 7B illustrates the use of anti S-segment antibodies to decrease the inflammation in a rabbit model of meningitis. Rabbits with established pneumonococcal meningitis received antibodies to intact PT or PT subunits: S2:3A12, S3:6F8 and S4:9C6.

The next experiment relates to ELAM. As to the kind of experiment: Assay 1: inhibition of adherence of neutrophils to ELAM-coated surfaces (FIG. 4). It is filed as cell-based. As to conditions: protein at 50 ug/ml, compared to buffer control. Here is the method:
as §1
Assay 1 is inhibition of adherence of enutrophils to ELAM-coated surfaces as described in connection with FIG. 4. Values ±20% inhibition are significant.

A further experiment deals with alveolar macrophages. As to the kind of experiment: Reconstitution of adherence of B. pertussis mutant BP101/TOX6 to macrophages by exogenous PT and subunits. Type of experiment: cell-based. The settings on record: PT component 50 ug/ml coated on BP101/TOX6; 10^7 bacteria, 10^5 rabbit alveolar macrophages, 3 hours; mean ± standard deviation. Here is the method: as §2

“Also recorded” adds a separate entry of the source.

Take pertussis toxin [PT]: the “carbohydrates (glycolipids) recognized” value in experiment [1] was “binds to lactosylceramide, glucosylceramide, sulfatides and gangliosides; also recorded: recognize lactosylaceramide, and gangliosides”. Further, the “inhibition of neutrophil adhesion to GMP140” value in the experiment on GMP140 turned out to be 30%. Besides, in the experiment with ciliated cells, the “Number of bacteria/target cell, Ciliated Cell” value is 6.7 ± 0.8 bacteria/target cell. Moreover, the “accumulation of leukocytes in cerebrospinal fluid” value in experiment [2] is recorded as “decreased the accumulation of leukocytes in cerebrospinal fluid”. Further, the “inhibition of neutrophil/leukocyte adherence to ELAM” value in the experiment with ELAM came out at 60%. Moreover, the “Number of bacteria/target cell, Macrophage” value with alveolar macrophages worked out at 21 ± 2.3 bacteria/target cell.
